Experimental findings from ChEMBL document CHEMBL5226375, “Synthesis and Comprehensive in Vivo Activity Profiling of Olean-12-en-28-ol, 3β-Pentacosanoate in Experimental Autoimmune Encephalomyelitis: A Natural Remyelinating and Anti-Inflammatory Agent” (J Nat Prod, 2023) are described below.

SMILES strings stand for the structures. Activity calls are given as the source filed them. The calls are words filed in the database; no cut-off is given here.

The test system of assay [1] is Mus musculus. Description: Anti-inflammatory activity against MOG35-55-induced experimental autoimmune encephalomyelitis C57BL/6 mouse model assessed as reduction in EAE symptoms by measuring reduction in paralysis of hind limbs at 300 to 600 mg/kg/day, ig for 14 days starting from 12th day of immunization. The class given is functional, organism-based. The note with it: dose 300-600 mg/kg/day, time 14.0 day.

Assay [2] has as its system Mus musculus. Put plainly: Anti-inflammatory activity against MOG35-55-induced experimental autoimmune encephalomyelitis C57BL/6 mouse model assessed as reduction in EAE symptoms by measuring reduction in cumulative scores at 600 mg/kg/day, ig for 14 days starting from 12th day of immunization and measured from day 12 to 38 post-immunization. The class given is functional, organism-based. The note with it: time 1-26 day.

The test system of assay [3] is Mus musculus. Description: Anti-inflammatory activity against MOG35-55-induced experimental autoimmune encephalomyelitis C57BL/6 mouse model assessed as fold change in CCL5 gene expression in brain at 600 mg/kg/day, ig for 14 days starting from 12th day of immunization by RT-qPCR analysis relative to control. The note with it: time 14 day. It is filed as functional.

Assay [4] has as its system Mus musculus. Description: Anti-inflammatory activity against MOG35-55-induced experimental autoimmune encephalomyelitis C57BL/6 mouse model assessed as fold change in CXCL10 gene expression in brain at 600 mg/kg/day, ig for 14 days starting from 12th day of immunization by RT-qPCR analysis relative to control. It is filed as functional. The note with it: time 14 day.

Assay [5] concerns Mus musculus. Description: Anti-inflammatory activity against MOG35-55-induced experimental autoimmune encephalomyelitis C57BL/6 mouse model assessed as fold change in STAT3 gene expression in brain at 600 mg/kg/day, ig for 14 days starting from 12th day of immunization by RT-qPCR analysis relative to control. It is filed as functional. The note with it: time 14 day.
The test system of assay [6] is Mus musculus. Description: Anti-inflammatory activity against MOG35-55-induced experimental autoimmune encephalomyelitis C57BL/6 mouse model assessed as fold change in MAG gene expression in brain at 600 mg/kg/day, ig for 14 days starting from 12th day of immunization by RT-qPCR analysis relative to control. It is filed as functional. The note with it: time 14 day. In general terms: In qPCR the cycle at which signal appears reflects the starting amount.

In assay [7] the test system is Mus musculus. Description: Anti-inflammatory activity against MOG35-55-induced experimental autoimmune encephalomyelitis C57BL/6 mouse model assessed as fold change in MBP gene expression in brain at 600 mg/kg/day, ig for 14 days starting from 12th day of immunization by RT-qPCR analysis relative to control. It is filed as functional. The note with it: time 14 day.

The subject of assay [8] is Mus musculus. Put plainly: Anti-inflammatory activity against MOG35-55-induced experimental autoimmune encephalomyelitis C57BL/6 mouse model assessed as fold change in CXCL10 gene expression in brain at 300 mg/kg/day, ig for 14 days starting from 12th day of immunization by RT-qPCR analysis relative to control. It is filed as functional. The note with it: time 14 day.

The subject of assay [9] is Mus musculus. Description: Anti-inflammatory activity against MOG35-55-induced experimental autoimmune encephalomyelitis C57BL/6 mouse model assessed as fold change in NFKB gene expression in brain at 300 mg/kg/day, ig for 14 days starting from 12th day of immunization by RT-qPCR analysis relative to control. The class given is functional. The note with it: time 14 day.

The subject of assay [10] is Mus musculus. Description: Anti-inflammatory activity against MOG35-55-induced experimental autoimmune encephalomyelitis C57BL/6 mouse model assessed as fold change in PLP gene expression in brain at 300 mg/kg/day, ig for 14 days starting from 12th day of immunization by RT-qPCR analysis relative to control. The note with it: time 14 day. It is filed as functional.
Assay [11] relates to Mus musculus. Put plainly: Anti-inflammatory activity against MOG35-55-induced experimental autoimmune encephalomyelitis C57BL/6 mouse model assessed as fold change in APP gene expression in brain at 300 mg/kg/day, ig for 14 days starting from 12th day of immunization by RT-qPCR analysis relative to control. The note with it: time 14 day. It is filed as functional.
Assay [12] deals with Mus musculus. Description: Anti-inflammatory activity against MOG35-55-induced experimental autoimmune encephalomyelitis C57BL/6 mouse model assessed as fold change in GFAP gene expression in brain at 300 mg/kg/day, ig for 14 days starting from 12th day of immunization by RT-qPCR analysis relative to control. The note with it: time 14 day. The class given is functional.
The test system of assay [13] is Mus musculus. Description: Anti-inflammatory activity against MOG35-55-induced experimental autoimmune encephalomyelitis C57BL/6 mouse model assessed as increase in serum IL-10 level at 600 mg/kg/day, ig for 14 days starting from 12th day of immunization by ELISA. It is filed as functional, organism-based. The note with it: time 14.0 day. On the technique in general: ELISA stands for enzyme-linked immunosorbent assay.

Assay [14] has as its system Mus musculus. Description: Anti-inflammatory activity against MOG35-55-induced experimental autoimmune encephalomyelitis C57BL/6 mouse model assessed as methylation of CpG sites of […] gene promoter in brain at 600 mg/kg, ig for 14 days starting from 12th day of immunization by PCR analysis (reference value: 45 +/-7%). It is filed as functional. The note with it: time 14 day.

Assay [15] deals with Mus musculus. Description: Anti-inflammatory activity against MOG35-55-induced experimental autoimmune encephalomyelitis C57BL/6 mouse model assessed as fold change in TNF-alpha gene expression in brain at 0.3 mg/kg/day, ig for 14 days starting from 12th day of immunization by RT-qPCR analysis relative to control. The class given is functional. The note with it: time 14 day.

Assay [16] concerns Mus musculus. Put plainly: Anti-inflammatory activity against MOG35-55-induced experimental autoimmune encephalomyelitis C57BL/6 mouse model assessed as fold change in CD4 gene expression in brain at 0.3 mg/kg/day, ig for 14 days starting from 12th day of immunization by RT-qPCR analysis relative to control. The class given is functional. The note with it: time 14 day.
In assay [17] the test system is Mus musculus. Put plainly: Anti-inflammatory activity against MOG35-55-induced experimental autoimmune encephalomyelitis C57BL/6 mouse model assessed as fold change in H2EB1 (HLA-DRB1) gene expression in brain at 0.3 mg/kg/day, ig for 14 days starting from 12th day of immunization by RT-qPCR analysis relative to control. It is filed as functional. The note with it: time 14 day.

Assay [18] deals with Mus musculus. Description: Anti-inflammatory activity against MOG35-55-induced experimental autoimmune encephalomyelitis C57BL/6 mouse model assessed as fold change in APP gene expression in brain at 0.3 mg/kg/day, ig for 14 days starting from 12th day of immunization by RT-qPCR analysis relative to control. The class given is functional. The note with it: time 14 day.
The test system of assay [19] is Mus musculus. Put plainly: Anti-inflammatory activity against MOG35-55-induced experimental autoimmune encephalomyelitis C57BL/6 mouse model assessed as fold change in HIF1A gene expression in brain at 0.15 mg/kg/day, ig for 14 days starting from 12th day of immunization by RT-qPCR analysis relative to control. It is filed as functional. The note with it: time 14 day.

Assay [20] concerns Mus musculus. Put plainly: Anti-inflammatory activity against MOG35-55-induced experimental autoimmune encephalomyelitis C57BL/6 mouse model assessed as fold change in NFKB gene expression in brain at 0.15 mg/kg/day, ig for 14 days starting from 12th day of immunization by RT-qPCR analysis relative to control. The class given is functional. The note with it: time 14 day.
In assay [21] the test system is Mus musculus. Put plainly: Anti-inflammatory activity against MOG35-55-induced experimental autoimmune encephalomyelitis C57BL/6 mouse model assessed as fold change in STAT3 gene expression in brain at 0.15 mg/kg/day, ig for 14 days starting from 12th day of immunization by RT-qPCR analysis relative to control. It is filed as functional. The note with it: time 14 day.

For assay [22], the system named is Mus musculus. Put plainly: Anti-inflammatory activity against MOG35-55-induced experimental autoimmune encephalomyelitis C57BL/6 mouse model assessed as fold change in APP gene expression in brain at 0.15 mg/kg/day, ig for 14 days starting from 12th day of immunization by RT-qPCR analysis relative to control. It is filed as functional. The note with it: time 14 day.

Assay [23] concerns Mus musculus. Description: Anti-inflammatory activity against MOG35-55-induced experimental autoimmune encephalomyelitis C57BL/6 mouse model assessed as fold change in GFAP gene expression in brain at 0.15 mg/kg/day, ig for 14 days starting from 12th day of immunization by RT-qPCR analysis relative to control. The class given is functional. The note with it: time 14 day.

For `CCCCCCCCCCCCCCCCCCCCCCCCC(=O)O[C@H]1CC[C@]2(C)[C@H]3CC=C4[C@@H]5CC(C)(C)CC[C@]5(CO)CC[C@@]4(C)[C@]3(C)CC[C@H]2C1(C)C`, the result in assay [1], in [2] and in [13] was Active. For the same compound, the “fold change (FC)” value in assay [3] is 1.27; in [4] it was 1.93; in assay [5] it was 1.32; in [6], -1.18; in assay [7], 3.8; in assay [8], 3.24. Further, the “fold change (FC)” value in assay [9] was 1.62; in assay [10] it was 1.9; in assay [11], -1.56; in assay [12], 1.17. Moreover, the Activity in [14] is on record as 44.7%.
Regarding `CCCCCCCCc1ccc(CCC(N)(CO)CO)cc1` [FINGOLIMOD], the “fold change (FC)” value in assay [15] is -1.46; in [16], 2.12; in [17], 13.9; in [18], 1.72; in [19] it was 2.49; in [20] it was 2.04. For the same compound, the “fold change (FC)” value in assay [21] was determined as 1.96; in assay [22], 1.77; in assay [23], 2.62.
